{
  "source": "ChEMBL document CHEMBL3046319",
  "about": "“PCR-RFLP detection of the E198A mutation conferring resistance to benzimidazoles in field isolates of Monilinia laxa from Greece” (Crop Prot, 2012)",
  "key": {"Monilinia laxa [1]": {"tested_on": "Monilinia laxa", "experiment": "Fungicidal activity against Monilinia laxa isolate MLK5 assessed as reduction in mycelial growth rate at 1 to 10 ug/ml at 31 degC after 5 days", "type": "functional, organism-based"}, "Monilinia laxa [2]": {"tested_on": "Monilinia laxa", "experiment": "Fungicidal activity against Monilinia laxa isolate MLX1 assessed as mean mycelial colony diameter at 25 degC after 4 days", "type": "functional"}, "Monilinia laxa [3]": {"tested_on": "Monilinia laxa", "experiment": "Fungicidal activity against Monilinia laxa isolate MLBO5 assessed as mean mycelial colony diameter at 25 degC after 4 days", "type": "functional"}, "Monilinia laxa [4]": {"tested_on": "Monilinia laxa", "experiment": "Fungicidal activity against Monilinia laxa isolate MLB1 assessed as reduction in mycelial growth rate at 1 to 10 ug/ml at 25 to 28 degC", "type": "functional, organism-based"}, "Monilinia laxa [5]": {"tested_on": "Monilinia laxa", "experiment": "Fungicidal activity against Monilinia laxa isolate MLK4 assessed as reduction in mycelial growth rate at 1 to 10 ug/ml at 25 to 28 degC", "type": "functional, organism-based"}, "Monilinia laxa [6]": {"tested_on": "Monilinia laxa", "experiment": "Fungicidal activity against Monilinia laxa isolate MLX1 assessed as mycelial growth at 1 ug/ml at 25 degC after 4 days", "type": "functional"}, "Monilinia laxa [7]": {"tested_on": "Monilinia laxa", "experiment": "Fungicidal activity against Monilinia laxa isolate MLX1 assessed as reduction in mycelial growth rate at 25 degC after 4 days", "type": "functional, organism-based", "conditions": "isolate MLX1, 96 h"}, "Monilinia laxa [8]": {"tested_on": "Monilinia laxa", "experiment": "Fungicidal activity against Monilinia laxa isolate MLK12 assessed as mycelial growth at 1 ug/ml at 25 degC after 4 days", "type": "functional"}, "Monilinia laxa [9]": {"tested_on": "Monilinia laxa", "experiment": "Fungicidal activity against Monilinia laxa isolate MLG7 assessed as reduction in mycelial growth rate at 25 degC after 4 days", "type": "functional, organism-based", "conditions": "isolate MLG7, 96 h"}, "Monilinia laxa [10]": {"tested_on": "Monilinia laxa", "experiment": "Fungicidal activity against Monilinia laxa isolate MLK4A assessed as reduction in mycelial growth rate at 25 degC after 4 days", "type": "functional, organism-based", "conditions": "96 h"}, "Monilinia laxa [11]": {"tested_on": "Monilinia laxa", "experiment": "Fungicidal activity against Monilinia laxa isolate MLNS1 assessed as reduction in mycelial growth rate at 1 to 10 ug/ml at 28 degC after 8 days", "type": "functional, organism-based"}, "Monilinia laxa [12]": {"tested_on": "Monilinia laxa", "experiment": "Fungicidal activity against Monilinia laxa isolate MLK2 assessed as reduction in mycelial growth rate at 25 degC after 4 days", "type": "functional, organism-based", "conditions": "isolate MLK2, 96 h"}, "Monilinia laxa [13]": {"tested_on": "Monilinia laxa", "experiment": "Fungicidal activity against Monilinia laxa isolate MLBO2 assessed as mycelial growth at 1 ug/ml at 25 degC after 4 days", "type": "functional"}, "Monilinia laxa [14]": {"tested_on": "Monilinia laxa", "experiment": "Fungicidal activity against Monilinia laxa isolate MLG5 assessed as reduction in mycelial growth rate at 25 degC after 4 days", "type": "functional, organism-based", "conditions": "isolate MLG5, 96 h"}, "Monilinia laxa [15]": {"tested_on": "Monilinia laxa", "experiment": "Fungicidal activity against Monilinia laxa isolate MLC5 assessed as reduction in mycelial growth rate at 1 to 10 ug/ml at 31 degC after 5 days", "type": "functional, organism-based"}, "Monilinia laxa [16]": {"tested_on": "Monilinia laxa", "experiment": "Fungicidal activity against Monilinia laxa isolate MLNS1 assessed as reduction in mycelial growth rate at 1 to 10 ug/ml at 31 degC after 5 days", "type": "functional, organism-based"}, "Monilinia laxa [17]": {"tested_on": "Monilinia laxa", "experiment": "Fungicidal activity against Monilinia laxa isolate MLK12 assessed as mean number of conidia produced in the colony at 25 degC after 12 days by haemocytometer", "type": "functional"}, "Monilinia laxa [18]": {"tested_on": "Monilinia laxa", "experiment": "Fungicidal activity against Monilinia laxa isolate MLC2 assessed as reduction in mycelial growth rate at 1 to 10 ug/ml at 25 to 28 degC", "type": "functional, organism-based"}, "Monilinia laxa [19]": {"tested_on": "Monilinia laxa", "experiment": "Fungicidal activity against Monilinia laxa isolate MLX5 assessed as reduction in mycelial growth rate at 1 to 10 ug/ml at 31 degC after 5 days", "type": "functional, organism-based"}, "Monilinia laxa [20]": {"tested_on": "Monilinia laxa", "experiment": "Fungicidal activity against Monilinia laxa isolate MLG1 assessed as mycelial growth at 1 ug/ml at 25 degC after 4 days", "type": "functional"}, "Monilinia laxa [21]": {"tested_on": "Monilinia laxa", "experiment": "Fungicidal activity against Monilinia laxa isolate MLP2 assessed as mean number of conidia produced in the colony at 25 degC after 12 days by haemocytometer", "type": "functional"}, "Monilinia laxa [22]": {"tested_on": "Monilinia laxa", "experiment": "Fungicidal activity against Monilinia laxa isolate MLX3 assessed as reduction in mycelial growth rate at 25 degC after 4 days", "type": "functional, organism-based", "conditions": "isolate MLX3, 96 h"}, "Monilinia laxa [23]": {"tested_on": "Monilinia laxa", "experiment": "Fungicidal activity against Monilinia laxa isolate MLK4 assessed as reduction in mycelial growth rate at 1 to 10 ug/ml at 31 degC after 5 days", "type": "functional, organism-based"}, "Monilinia laxa [24]": {"tested_on": "Monilinia laxa", "experiment": "Fungicidal activity against Monilinia laxa isolate MLX4 assessed as reduction in mycelial growth rate at 1 to 10 ug/ml at 31 degC after 5 days", "type": "functional, organism-based"}},
  "note": "Active and inactive are the calls of the source. The calls are words filed in the database; no cut-off is given here.",
  "data": [
    {"smiles": "COC(=O)Nc1nc2ccccc2[nH]1", "note": "[CARBENDAZIM]", "values": [
      {"measurement": "inhibition", "setting": "Monilinia laxa [1]", "value": "Active"},
      {"measurement": "Activity", "setting": "Monilinia laxa [2]", "value": 31.25, "unit": "mm"},
      {"measurement": "Activity", "setting": "Monilinia laxa [3]", "value": 29.5, "unit": "mm"},
      {"measurement": "inhibition", "setting": "Monilinia laxa [4]", "value": "inactive"},
      {"measurement": "inhibition", "setting": "Monilinia laxa [5]", "value": "inactive"},
      {"measurement": "Activity", "setting": "Monilinia laxa [6]", "value": 100, "unit": "%"},
      {"measurement": "EC50", "setting": "Monilinia laxa [7]", "value": "> 50", "unit": "µg/mL"},
      {"measurement": "Activity", "setting": "Monilinia laxa [8]", "value": 95.82, "unit": "%"},
      {"measurement": "EC50", "setting": "Monilinia laxa [9]", "value": 0.12, "unit": "µg/mL"},
      {"measurement": "EC50", "setting": "Monilinia laxa [10]", "value": 0.12, "unit": "µg/mL"},
      {"measurement": "inhibition", "setting": "Monilinia laxa [11]", "value": "inactive"},
      {"measurement": "EC50", "setting": "Monilinia laxa [12]", "value": "> 50", "unit": "µg/mL"},
      {"measurement": "Activity", "setting": "Monilinia laxa [13]", "value": 0, "unit": "%"},
      {"measurement": "EC50", "setting": "Monilinia laxa [14]", "value": 0.09, "unit": "µg/mL"},
      {"measurement": "inhibition", "setting": "Monilinia laxa [15]", "value": "Active"},
      {"measurement": "inhibition", "setting": "Monilinia laxa [16]", "value": "Active"},
      {"measurement": "Activity", "setting": "Monilinia laxa [17]", "value": "4.7 /cm2"},
      {"measurement": "inhibition", "setting": "Monilinia laxa [18]", "value": "inactive"},
      {"measurement": "inhibition", "setting": "Monilinia laxa [19]", "value": "Active"},
      {"measurement": "Activity", "setting": "Monilinia laxa [20]", "value": 0, "unit": "%"},
      {"measurement": "Activity", "setting": "Monilinia laxa [21]", "value": "4.15 /cm2"},
      {"measurement": "EC50", "setting": "Monilinia laxa [22]", "value": "> 50", "unit": "µg/mL"},
      {"measurement": "inhibition", "setting": "Monilinia laxa [23]", "value": "Active"},
      {"measurement": "inhibition", "setting": "Monilinia laxa [24]", "value": "Active"}
    ]}
  ]
}
